For one compound, MIC results are on record in patent CN106344577A, “Fistulains A在抗幽门螺杆菌药物中的应用” (Quanjiao Xianqi Pharmaceutical Technology Co Ltd, priority 2016, dated 2017).

Values after ≈ are worked out from the molar mass of the structure shown.

The subject of the assay is Helicobacter pylori (幽门螺杆菌). The experiment in a line: Agar dilution method, MIC against H. pylori. The class given is cell-based. To be noted: same value for each of 6 strains: 5 random clinical strains (Hp001, Hp003, Hp004, Hp018, Hp036) and standard strain ATCC43504, complete growth inhibition, 37℃, 72 h, microaerobic, read-out: minimum inhibitory concentration (MIC).

Take `CC1(C)S[C@@H]2[C@H](NC(=O)[C@H](N)c3ccccc3)C(=O)N2[C@H]1C(=O)O` [氨苄西林]: the MIC came out at 3.3 µg/mL (≈ 9.44 µM).
